Data taken from patent US20090282496A1, “Androgen Receptor Related Methods for Treating Bladder Cancer” (University of Rochester Medical Center, priority 2008, published 2009).
Marks after values point to notes of the source that are not given here.

Columns and labels:
[1] = system: BBN-induced bladder tumors; settings: mouse, in vivo
Protocol: (§2) Animal care was provided in accordance with institutional guidelines. Five to six weeks old ARKO mice (male: n=48; female: n=24) and their wild-type littermates (male: n=48; female: n=24) were supplied ad libitum with tap water containing 0.05% BBN (TCI America) in opaque bottles for 12 weeks, and thereafter with tap water without BBN. To estimate BBN intake, the drinking water was prepared fresh twice a week, and consumption was recorded. […] Before starting BBN treatment, wild-type male mice received surgical castration (n=24) or sham surgery (n=24) at 5 weeks of age. […] Every 90 days, these pellets were replaced. At 20 (n=4 in each group), 30 (n=8 in each group), or 40 (n=12 in each group) weeks of age, the mice were killed by administration of pentobarbital followed by rapid cervical dislocation. Urinary tract specimens were harvested. These specimens were preserved in phosphate-buffered 10% formalin, embedded in paraffin, sectioned, stained with hematoxylin and eosin, and examined microscopically to identify carcinoma or other pathological changes. Paraffin-embedded sections were also used for immunohistochemical analysis. Part of each specimen was rapidly frozen in liquid nitrogen and stored at −80° C. for subsequent RNA analysis.
(§3) Sections (5-7 μm thick) from paraffin-embedded mouse urinary tract tissue and xenograft tumors (see below) were deparaffinized in xylene and rehydrated in a graded ethanol series. Sections were then incubated in 3% hydrogen peroxide to block endogenous peroxidase, with a protein blocking solution containing preimmune rabbit serum, and finally with a 1:500 dilution of primary antibody (rabbit polyclonal anti-proliferating cell nuclear antigen (PCNA) (Santa Cruz). Samples were incubated with peroxidase-conjugated anti-rabbit IgG. The slides were rinsed with PBS, incubated with diaminobenzidine, and finally counterstained with hematoxylin. The TUNEL assay was performed on additional rehydrated sections from paraffin-embedded mouse urinary tract tissue and xenograft tumor using the Fluorescein-FragEL DNA Fragmentation Detection kit (Calbiochem), according to the manufacturer's instructions, followed by counterstaining for DNA with DAPI. The percentage of apoptotic cells was determined by fluorescence microscopy. The percentage of PCNA- and TUNEL-positive cells in 1000 cells counted on each specimen were used to determine the amount of cell proliferation and apoptotic indices, respectively.

[2] = system: BBN-induced bladder tumors; settings: wild-type mice, drinking water with BBN at 0.01-0.05% for 10-20 weeks; previous studies; cited from earlier work
TCC-SUP xenograft tumors = experiment: TCC-SUP mouse xenograft, tumor progression study; type: in vivo, male athymic nude mouse
Description: Total RNA from mouse bladder and xenograft tumor tissues and cultured cells was extracted by the acid guanidinium-phenol-chloroform method as previously described (Miyamoto et al., Cancer, 75:2565-70 (1995)) or by using Trizol reagent (Life Science). Isolated RNAs were reverse transcribed to cDNA using random hexamers as described (Miyamoto et al., Cancer, 75:2565-70 (1995) and Miyoshi et al., Prostate, 56:280-6 (2003)), and amplified by PCR using a primer set specific for the AR gene (Miyoshi et al., Prostate, 56:280-6 (2003)). Using the iCycler (Bio-Rad) and the methods previously described by Miyoshi et al., Prostate, 56:280-6 (2003), real-time quantitative PCR analysis of AR, basic fibroblast growth factor (bFGF), vascular endothelial growth factor (VEGF), and matrix metalloproteinase-9 (MMP-9) was performed on the tissue samples from mouse xenograft tumors. The following PCR primers were designed using Beacon Designer 2 (Premier Biosoft): bFGF: 5′-[…]-3′ (SEQ ID NO. 1) and 5′-[…]-3′ (SEQ ID NO. 2), VEGF: 5′-[…]-3′ (SEQ ID NO. 3) and 5′-[…]-3′ (SEQ ID NO. 4), and MMP-9: 5′-[…]-3′ (SEQ ID NO. 5) and 5′-[…]-3′ (SEQ ID NO. 6). β-actin was used as an internal control.
(§1) Bladder cancer cell lines (TCC-SUP, UMUC3, and 5637) were harvested, washed twice with PBS, and resuspended in Matrigel (BD Bioscience) at a final concentration of 1×10^7 cells/mL. Cells (1×10^6 cells in 100 μl per site) were then injected subcutaneously into the right and left flanks of 6-week-old male athymic nude mouse. Treatment (castration or sham surgery, flutamide [0.5 mg/mouse] or placebo pellet injection, and the recently developed anti-AR molecule ASC-J9 (50 mg/Kg or DMSO injection) (Ohtsu et al., J. Med. Chem., 45:5037-42 (2002)) was initiated either (1) at the same time as tumor cell injection (for tumor incidence studies, n=8 mice in each group) or (2) when the sizes of all tumors reached 40 mm^3 (for tumor progression studies, n=12 tumors from 6 mice in each group). Hormonal pellets were replaced as required (every 90 days). Tumor weight was calculated by the following formula: tumor weight (mg)=tumor length (mm)×[tumor width (mm)]^2×0.5 (Geram et al., Cancer Chemother. Rep., 3:47-52 (1972)). Using calipers, each tumor was measured twice a week until either the tumor size reached 40 mm^3 (for tumor incidence study) (Chen et al., Nat. Med., 10:33-9 (2004)), or until the tumor exceeded 10% of the animal's body weight, at which time the mouse was killed (for tumor progression study).

[3] = system: TCC-SUP and UMUC3 stable sublines (control-siRNA, AR-siRNA); experiment: Tumor incidence (tumorigenicity) study of control-siRNA and AR-siRNA sublines in nude mice; type: in vivo, male athymic nude mouse
Description: The reporter plasmids [mouse mammary tumor virus (MMTV)-luciferase (Luc) and (ARE)4-Luc (provided by Dr. Michael L. Lu at Harvard Medical School)] as well as a retrovirus vector pMSCV/U6 (Clontech)-AR-siRNA were described in previous studies (Miyamoto et al., Int. J. Cancer, 117:866-72 (2005) and Yeh et al., J. Exp. Med. 198:1899-908 (2003)). Using SuperFect reagent (Qiagen), stable cell lines expressing the AR-siRNA were established by transfecting pMSCV/U6-AR-siRNA into Phi-NX packaging retrovirus producer cells (developed by the Nolan Lab at Stanford University). The target cells (i.e., TCC-SUP, UMUC3, and 5637) were then cultured in the presence of the viral supernatant, and infected cells were selected with puromycin (Sigma).
as §1

[4] = system: AR-negative 5637 xenograft tumors; experiment: 5637 mouse xenograft, tumor progression study; type: in vivo, male athymic nude mouse; settings: androgen deprivation therapy (castration and/or flutamide) at 12 weeks
Protocol: Bladder cancer cell lines (TCC-SUP, UMUC3, and 5637) were harvested, washed twice with PBS, and resuspended in Matrigel (BD Bioscience) at a final concentration of 1×10^7 cells/mL. Cells (1×10^6 cells in 100 μl per site) were then injected subcutaneously into the right and left flanks of 6-week-old male athymic nude mouse. […] Med. […] Hormonal pellets were replaced as required (every 90 days). Tumor weight was calculated by the following formula: tumor weight (mg)=tumor length (mm)×[tumor width (mm)]^2×0.5 (Geram et al., Cancer Chemother. Rep., 3:47-52 (1972)).

[5] = system: BBN-induced bladder cancer; settings: rats; castration had a much stronger effect; cited from earlier work
[6] = system: AR-negative bladder cancer cell lines (5637); experiment: Cell proliferation assay (MTT), AR-negative bladder cancer cell lines; type: cell-based, human; settings: AR-negative 5637 subline that expresses AR-siRNA, 6 days
AR = target: T1, AR (Homo sapiens, UniProt P10275); settings: TCC-SUP and UMUC3 cells, MMTV-Luc, 24 h
T1 sequence (P10275 1-920): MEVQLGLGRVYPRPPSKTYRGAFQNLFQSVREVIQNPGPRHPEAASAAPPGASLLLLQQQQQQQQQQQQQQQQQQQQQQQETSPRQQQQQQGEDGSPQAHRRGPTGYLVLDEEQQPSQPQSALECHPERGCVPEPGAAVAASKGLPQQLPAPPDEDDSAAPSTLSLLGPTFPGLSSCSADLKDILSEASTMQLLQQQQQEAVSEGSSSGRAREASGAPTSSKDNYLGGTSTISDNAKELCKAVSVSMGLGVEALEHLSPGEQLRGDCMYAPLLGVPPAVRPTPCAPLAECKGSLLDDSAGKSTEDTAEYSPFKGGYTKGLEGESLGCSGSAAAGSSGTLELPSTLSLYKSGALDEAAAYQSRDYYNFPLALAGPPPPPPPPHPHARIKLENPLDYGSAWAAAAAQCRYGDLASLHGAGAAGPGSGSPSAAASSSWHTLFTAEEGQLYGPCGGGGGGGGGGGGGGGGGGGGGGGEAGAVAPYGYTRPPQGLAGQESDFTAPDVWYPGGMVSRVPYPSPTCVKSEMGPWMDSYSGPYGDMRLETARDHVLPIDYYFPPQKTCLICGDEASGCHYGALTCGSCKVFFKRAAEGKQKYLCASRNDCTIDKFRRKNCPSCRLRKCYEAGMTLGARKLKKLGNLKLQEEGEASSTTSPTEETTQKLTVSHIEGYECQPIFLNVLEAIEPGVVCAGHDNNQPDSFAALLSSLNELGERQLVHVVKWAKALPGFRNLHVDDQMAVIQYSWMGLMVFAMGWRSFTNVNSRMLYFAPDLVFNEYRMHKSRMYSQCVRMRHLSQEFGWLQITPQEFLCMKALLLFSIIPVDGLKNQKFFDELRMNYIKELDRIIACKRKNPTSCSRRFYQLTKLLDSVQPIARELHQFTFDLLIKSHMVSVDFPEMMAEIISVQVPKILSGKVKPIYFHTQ
Protocol: Cell transfections and luciferase assays were performed as previously described (Miyamoto et al., Int. J. Cancer, 117:866-72 (2005) and Miyamoto et al., Proc. Natl. Acad. Sci. USA, 100:4440-4 (2003)). Briefly, bladder cancer cells at a density of 50-60% confluence in 12-well tissue culture plates were transfected with 1.5 μg of plasmid DNA using SuperFect transfection reagent (Qiagen) according to the manufacturer's instructions. […] Cells were harvested, lysed, and assayed for luciferase activity. A Dual-Luciferase Reporter Assay kit (Promega) and luminometer (TD-20/20, Turner BioSystems) were used to determine the level of luciferase activity in the cell extracts.

TCC-SUP cells = experiment: Cell proliferation assay (MTT), TCC-SUP; type: cell-based, human; settings: 6 days; for effect on growth: TCC-SUP subline that expresses AR-siRNA
UMUC3 cells = experiment: Cell proliferation assay (MTT), UMUC3; type: cell-based, human; settings: 6 days; for effect on growth: UMUC3 subline that expresses AR-siRNA
[7] = system: BBN-induced bladder tumors; experiment: BBN-induced mouse bladder cancer model (tumor incidence; PCNA and TUNEL indexes of tumors); settings: for Carcinoma, No. (%) / Preneoplastic lesions, No. (%): 0.05% BBN
Protocol: as §2, §3

[8] = harvested TCC-SUP tumors, real-time RT-PCR
[9] = ARKO male mice + DHT pellet 1.5 mg/mouse/90 days, age 20 weeks
[10] = ARKO male mice + DHT pellet, age 30 weeks
[11] = ARKO male mice + DHT pellet, age 40 weeks
[12] = male ARKO mice treated with BBN and DHT, 40 weeks
[13] = harvested TCC-SUP tumors, ASC-J9 50 mg/Kg

## CCCCN(CCCCO)N=O [BBN, N-butyl-N-(4-hydroxybutyl)nitrosamine]
[1]
  hyperplasia in the bladder, incidence: 17%
  invasive carcinoma incidence: 50%
  preneoplastic bladder lesions incidence: 50-67%
  preneoplastic lesions (hyperplasias or papillomas) incidence: 75%
[2]
  frequency of bladder carcinomas by 40 weeks: 30-100%

## CC(C)C(=O)Nc1ccc([N+](=O)[O-])c(C(F)(F)F)c1 [flutamide, Flutamide]
TCC-SUP xenograft tumors; castration and/or antiandrogen (flutamide pellet), at 16 weeks
  tumor size vs. control mice: statistically significantly smaller
TCC-SUP xenograft tumors; [8]
  levels of angiogenic factors and metastasis-related factors (bFGF, VEGF, MMP-9) in tumors: reduced
[3]; androgen deprivation (castration or flutamide pellet)
  tumorigenicity of AR-expressing (control-siRNA-transfected) bladder cancer: suppressed tumorigenicity
[3]; castration and flutamide treatment
  development of AR-siRNA-expressing tumors: little effect
[4]
  reduction in tumor size: up to 12%

## CC(C)(C)NC(=O)[C@H]1CC[C@H]2[C@@H]3CC[C@H]4NC(=O)C=C[C@]4(C)[C@H]3CC[C@]12C [finasteride, Finasteride]
[5]
  development of BBN-induced bladder cancer: only slightly suppressed

## CC(C)(O)C(=O)Nc1ccc([N+](=O)[O-])c(C(F)(F)F)c1 [HF, hydroxyflutamide]
[6]
  effect on growth: did not affect the growth
AR; 5 μM HF + 1 nM DHT
  effect on DHT-induction of luciferase: clearly inhibited
AR; 5 μM HF alone
  agonist activity alone (luciferase): only marginal agonist activity
TCC-SUP cells
  effect on growth: did not affect the growth
TCC-SUP cells; TCC-SUP, 5 μM HF + 1 nM DHT, range given for both lines
  reduction of the DHT effect on cell growth: 67-75%
TCC-SUP cells; control (scrambled siRNA) TCC-SUP subline, 1 nM DHT and/or 5 μM HF
  effect on cell proliferation: antagonized the DHT effect
UMUC3 cells; UMUC3, 5 μM HF + 1 nM DHT, range given for both lines
  reduction of the DHT effect on cell growth: 67-75%
UMUC3 cells
  effect on growth: did not affect the growth
UMUC3 cells; control (scrambled siRNA) UMUC3 subline, 1 nM DHT and/or 5 μM HF
  effect on cell proliferation: antagonized the DHT effect

## C[C@]12CCC(=O)C[C@@H]1CC[C@@H]1[C@@H]2CC[C@]2(C)[C@@H](O)CC[C@@H]12 [DHT, dihydrotestosterone]
[6]
  effect on growth: did not affect the growth
[7]; [9]
  Carcinoma, No. (%): 0 (0) No. (%)
  Preneoplastic lesions, No. (%): 0 (0) No. (%)
[7]; [10]
  Carcinoma, No. (%): 1 (0)∵ No. (%)
  Preneoplastic lesions, No. (%): 3 (38) No. (%)
[7]; [11]
  Carcinoma, No. (%): 3 (25)‡‡ No. (%)
  Preneoplastic lesions, No. (%): 5 (42) No. (%)
[7]; [12]
  carcinoma incidence: 25%
  preneoplastic lesions incidence: 42%
TCC-SUP cells
  effect on growth: did not affect the growth
TCC-SUP cells; TCC-SUP, 1 nM DHT, vs. ETOH
  increase of cell growth: 55%
UMUC3 cells; UMUC3, 1 nM DHT, vs. ETOH
  increase of cell growth: 45%
UMUC3 cells
  effect on growth: did not affect the growth

## COc1ccc(C=CC(=O)C=C(O)C=Cc2ccc(OC)c(OC)c2)cc1OC [ASC-J9, 5-hydroxy-1,7-bis(3,4-dimethoxyphenyl)-1,4,6-heptatrien-3-one]
TCC-SUP xenograft tumors; ASC-J9 50 mg/Kg intraperitoneal every other day, over 16 weeks of treatment
  reduction in tumor size: 58%
TCC-SUP xenograft tumors; [13]
  apoptotic index of harvested tumors: increased
  proliferation index of harvested tumors: decreased
TCC-SUP xenograft tumors; [8]
  levels of angiogenic factors and metastasis-related factors (bFGF, VEGF, MMP-9) in tumors: reduced
TCC-SUP xenograft tumors; harvested TCC-SUP tumors, real-time RT-PCR, ASC-J9 50 mg/Kg
  reduction of AR expression in tumors: 39%
[3]; vs. control-siRNA cells with control treatment, treatment from tumor cell implantation, tumor positive at 40 mm3
  latency of tumor formation: substantially prolonged
TCC-SUP cells; TCC-SUP, 1 μM ASC-J9 + 1 nM DHT
  effect on DHT-simulated growth: inhibited
UMUC3 cells; UMUC3, 1 μM ASC-J9 + 1 nM DHT
  effect on DHT-simulated growth: inhibited
